US5658917A, “Isoquinolines having adenosine uptake inhibitor activity” (Kyowa Hakko Kogyo Co., Ltd., priority 1993, dated 1997)

How the values were obtained:
[1] = tested on: [^3 H]-adenosine uptake by washed erythrocytes; experiment: Inhibitory effect on [^3 H]-adenosine uptake (washed erythrocytes); type: cell-based, human (healthy male adult); settings: Erythrocyte; human washed erythrocytes; 1 hour preincubation at room temperature; 10 seconds uptake; read-out: [^3 H]-Adenosine Uptake Inhibition IC50
Procedure: Test Example 1 Inhibitory Effect on [^3 H]-Adenosine Uptake
[…] To 100 μl of an erythrocyte suspension (2.5×10^9 /ml) was added 10 μl of a 21% DMSO solution of a test compound. After allowing the suspension to stand at room temperature for 1 hour, 100 μl of a [^3 H]-adenosine solution was added thereto. Ten seconds later, 200 μl of a dilazep solution (1 mg/ml) was added to stop the reaction. The erythrocytes were dissolved in Triton X-100, and the uptake amount of ^3 H was measured with a liquid scintillation counter. The concentration of the test compound which inhibits the [^3 H]-adenosine uptake by 50% (IC50) was calculated.

[2] = molecular target: T1, [^3 H]-Nitrobenzylthioinosine (NBI) binding, cerebral cortex tissue homogenate (Cavia porcellus, UniProt H0V4R7); experiment: Inhibitory effect on [^3 H]-nitrobenzylthioinosine (NBI) binding; parameters: species or system guinea pig (Hartley strain, male); settings: guinea pig cerebral cortex; 1.5 nM [^3 H]-NBI; 25° C., 30 minutes; Cheng-Prusoff
T1 construct: The cerebral cortex of a male guinea pig of Hartley strain was homogenized; from tissue; host or cells: guinea pig (male, Hartley strain) cerebral cortex, washed membrane suspension
T1 sequence (H0V4R7 1-461): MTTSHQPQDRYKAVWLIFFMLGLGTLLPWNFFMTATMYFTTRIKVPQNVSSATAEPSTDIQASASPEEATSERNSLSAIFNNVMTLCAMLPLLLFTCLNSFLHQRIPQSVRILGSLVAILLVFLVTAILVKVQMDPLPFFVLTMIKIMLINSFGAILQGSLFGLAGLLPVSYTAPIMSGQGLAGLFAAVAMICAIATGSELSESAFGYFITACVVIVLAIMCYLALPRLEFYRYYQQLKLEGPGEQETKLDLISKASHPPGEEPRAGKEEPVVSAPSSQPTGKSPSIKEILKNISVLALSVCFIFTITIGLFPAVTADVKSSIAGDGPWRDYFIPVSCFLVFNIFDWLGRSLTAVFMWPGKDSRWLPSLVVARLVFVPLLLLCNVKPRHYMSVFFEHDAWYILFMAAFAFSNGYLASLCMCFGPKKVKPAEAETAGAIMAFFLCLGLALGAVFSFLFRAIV
Procedure: Test Example 2 Inhibitory Effect on [^3 H]-Nitrobenzylthioinosine (NBI) Binding (an indication of adenosine uptake inhibitory activity)
The cerebral cortex of a male guinea pig of Hartley strain was homogenized with an ice-cooled 50 mM tris-HCl buffer (pH 7.4) in an amount of 25 times (w/v) that of the tissue. The homogenate was centrifuged (30,000×g, 4° C., 20 mins.), and the supernatant was discarded. To the precipitate was added the same amount of the buffer, followed by homogenization and then centrifugation in the same manner as above. The obtained precipitate was suspended in 20 times as much buffer as the precipitate to prepare a suspension for testing.
To a DMSO solution of a test compound were added 1.5 nM of [^3 H]-NBI and 5 mg (wet basis) of the tissue homogenate, and the mixture was allowed to stand at 25° C. for 30 minutes. To the mixture was added 4 ml of an ice-cooled buffer, followed by rapid filtration with suction through a glass filter (GF/C, produced by Whatman Ltd.) or a Ready filter (produced by Beckman Co.) to stop the reaction. The filter was transferred to a scintillation vial, and after drying, Scintisol EX-H was added thereto. The radioactivity was measured with a liquid scintillation counter. The binding inhibitory activity was expressed in terms of an inhibition constant (Ki value) as calculated according to Cheng-Prusoff's formula.

[3] = Inhibitory effect on ischemic paw edema in mice; type: in vivo, mouse (ddY-strain, male); settings: 30 mg/kg orally 1 hour before 20 min ischemia; for Paw Edema Supression Rate After 20 minutes: 20 minutes after blood recirculation; for Paw Edema Supression Rate After 40 minutes: 40 minutes after blood recirculation; for Paw Edema Supression Rate After 60 minutes: 60 minutes after blood recirculation
Text: Test Example 3 Inhibitory Effect on Ischemic Paw Edema in Mice
Ischemia followed by reperfusion in the limb of a mouse induces paw edema due to membrane injury in which active oxygen is involved [Arzneim.-Forsch., 41, 469-474 (1991)]. In general, peroxidation of membrane lipid and calcium influx into cells play roles in ischemia-reperfusion injury [Life Science, 29, 1289-1295 (1981); Japan J. Pharmacol., 52, 553-562 (1990)]. It is active oxygen production that triggers these factors, and the source of active oxygen includes endothelial cells and leukocytes [J. Mol. Cell Cardiol., 20 (Suppl. II), 55-63 (1988); Blood, 73, 301-306 (1989)]. […] J. Physiol., 257, H1334-1339 (1989); J. Immunol., 135, 1366-1371 (1985)]. Accordingly, it is believed that a compound effective on an ischemic podedema model in mice as hereinafter described would provide a convenient and useful model for evaluating an adenosine uptake inhibitor.
Experiments were conducted in accordance with the method described in Arzneim.-Forsch., 41, 469-474 (1991). A test compound was suspended in water and orally given to grouped male mice of ddY-strain weighing 25 to 30 g at a dose of 30 mg/kg. One hour later, the left hind limb was bound with a rubber band for 20 minutes to cause ischemia, and 20, 40 and 60 minutes after blood recirculation, the paw thickness was measured with a pair of calipers (Digimatic Caliper manufactured by Mitsutoyo K.K.). The paw edema was determined as the difference in thickness between the left hind paw (ischemia-treated) and the non-treated right one. Each result was expressed in terms of percent suppression of edema in a test compound group on the basis of the edema in a control group.

ddY-strain male mice = experiment: Acute toxicity test; type: in vivo; settings: mortality seven days after administration
Text: Test Example 4 Acute Toxicity Test
A test compound was intraperitoneally or orally administered to groups of ddY-strain male mice weighing 20±1 g, each group consisting of three mice.

With `COc1cc2ncnc(N3CCC(n4c(=O)c5cc([N+](=O)[O-])ccc5n(Cc5ccccc5)c4=O)CC3)c2cc1OC` [Compound 8, 1-Benzyl-3-[1-(6,7-dimethoxy-4-quinazolinyl)-4-piperidinyl]-1,2,3,4-tetrahydro-6-nitro-2,4-dioxo-quinazoline] as the compound, how does the IC50 [1] read?
Its IC50 is 0.295 µM.

With `COc1cc2ncnc(N3CCC(n4c(=O)c5cc([N+](=O)[O-])ccc5n(C)c4=O)CC3)c2cc1OC` [Compound 1, 3-[1-(6,7-Dimethoxy-4-quinazolinyl)-4-piperidinyl]-1,2,3,4-tetrahydro-1-methyl-6-nitro-2,4-dioxoquinazoline] as the compound, how does the IC50 [1] read?
Its IC50 is 0.042 µM.

What about the Ki [2] of the same compound?
Its Ki is 0.018 µM.

With `COc1cc2nc(C)nc(N3CCC(n4c(=O)c5cc(C)ccc5n(C)c4=O)CC3)c2cc1OC` [Compound 80, 3-[1-(6,7-Dimethoxy-2-methyl-4-quinazolinyl)-4-piperidinyl]-1,2,3,4-tetrahydro-1,6-dimethyl-2,4-dioxo-quinazoline] as the compound, how does the IC50 [1] read?
Its IC50 is 0.127 µM.

For `COc1cc2ncnc(N3CCC(n4c(=O)[nH]c5ccc([N+](=O)[O-])cc5c4=O)CC3)c2cc1OC` [Compound 24, 3-[1-(6,7-Dimethoxy-4-quinazolinyl)-4-piperidinyl]-1,2,3,4-tetrahydro-6-nitro-2,4-dioxoquinazoline], which IC50 [1] is on record?
The IC50 was 0.038 µM.

And the Ki [2]?
The Ki was 0.015 µM.

For `COc1cc2ncnc(N3CCC(n4c(=O)c5cc(C)ccc5n(C)c4=O)CC3)c2cc1OC` [Compound 50, 3-[1-(6,7-Dimethoxy-4-quinazolinyl)-4-piperidinyl]-1,2,3,4-tetrahydro-1,6-dimethyl-2,4-dioxoquinazoline], which IC50 [1] is on record?
The IC50 was 0.054 µM.

And the Ki [2]?
The Ki was 0.012 µM.

With `CCCc1ccc2c(c1)c(=O)n(C1CCN(c3ncnc4cc(OC)c(OC)cc34)CC1)c(=O)n2C` [Compound 55, 3-[1-(6,7-Dimethoxy-4-quinazolinyl)-4-piperidinyl]-1,2,3,4-tetrahydro-1-methyl-2,4-dioxo-6-propyl-quinazoline] as the compound, how does the IC50 [1] read?
The IC50 was 0.171 µM.

Which IC50 [1] does the source give for `CCCn1c(=O)n(C2CCN(c3ncnc4cc(OC)c(OC)cc34)CC2)c(=O)c2cc([N+](=O)[O-])ccc21` [Compound 3, 3-[1-(6,7-Dimethoxy-4-quinazolinyl)-4-piperidinyl]-1,2,3,4-tetrahydro-6-nitro-2,4-dioxo-1-propyl-quinazoline] here?
Its IC50 is 0.062 µM.

And the Ki [2]?
Its Ki is 0.0043 µM.

And the “Paw Edema Supression Rate After 20 minutes” value [3]?
Its value is 4.8 ± 4.40%.

And the “Paw Edema Supression Rate After 40 minutes” value [3]?
The value was 11.6 ± 2.68%.

And the “Paw Edema Supression Rate After 60 minutes” value [3]?
The value was 14.9 ± 3.58%.

And the “minimum lethal dose (MLD) i.p.” value (ddY-strain male mice)?
Its value is greater than 100 mg/kg.

And the “minimum lethal dose (MLD) p.o.” value (ddY-strain male mice)?
The value was greater than 300 mg/kg.

Which IC50 [1] does the source give for `CCn1c(=O)n(C2CCN(c3ncnc4cc(OC)c(OC)cc34)CC2)c(=O)c2cc([N+](=O)[O-])ccc21` [Compound 2, 3-[1-(6,7-Dimethoxy-4-quinazolinyl)-4-piperidinyl]-1-ethyl-1,2,3,4-tetrahydro-6-nitro-2,4-dioxoquinazoline] here?
Its IC50 is 0.103 µM.

What about the Ki [2] of the same compound?
Its Ki is 0.018 µM.

And the “Paw Edema Supression Rate After 20 minutes” value [3]?
The value was 4.1 ± 2.98%.

What about the “Paw Edema Supression Rate After 40 minutes” value [3] of the same compound?
Its value is 9.0 ± 3.79%.

And the “Paw Edema Supression Rate After 60 minutes” value [3]?
Its value is 15.5 ± 4.09%.

What about the “minimum lethal dose (MLD) i.p.” value (ddY-strain male mice) of the same compound?
The value was greater than 100 mg/kg.

And the “minimum lethal dose (MLD) p.o.” value (ddY-strain male mice)?
The value was greater than 300 mg/kg.

For `COc1cc2ncnc(N3CCC(n4c(=O)c5cc(C(C)=O)ccc5n(C)c4=O)CC3)c2cc1OC` [Compound 63, 6-Acetyl-3-[1-(6,7-dimethoxy-4-quinazolinyl)-4-piperidinyl]-1,2,3,4-tetrahydro-1-methyl-2,4-dioxo-quinazoline], which IC50 [1] is on record?
Its IC50 is 0.088 µM.

Which results are given for `COc1ccc2c(c1)c(=O)n(C1CCN(c3ncnc4cc(OC)c(OC)cc34)CC1)c(=O)n2C` [Compound 69, 3-[1-(6,7-Dimethoxy-4-quinazolinyl)-4-piperidinyl]-1,2,3,4-tetrahydro-6-methoxy-1-methyl-2,4-dioxo-quinazoline]?
IC50 [1]: 0.157 µM; Ki [2]: 0.011 µM

Which IC50 [1] does the source give for `CCOC(=O)Cn1c(=O)n(C2CCN(c3ncnc4cc(OC)c(OC)cc34)CC2)c(=O)c2cc([N+](=O)[O-])ccc21` [Compound 6, 3-[1-(6,7-Dimethoxy-4-quinazolinyl)-4-piperidinyl]-1-ethoxycarbonylmethyl-1,2,3,4-tetrahydro-6-nitro-2,4-dioxoquinazoline] here?
The IC50 was 0.462 µM.

Which results are given for `COc1cc2ncnc(N3CCC(n4c(=O)c5cc(Br)ccc5n(C)c4=O)CC3)c2cc1OC` [Compound 45, 6-Bromo-3-[1-(6,7-dimethoxy-4-quinazolinyl)-4-piperidinyl]-1,2,3,4-tetrahydro-1-methyl-2,4-dioxo-quinazoline]?
IC50 [1]: 0.054 µM; Ki [2]: 0.0069 µM
